One assay addresses human TASK-1 (Homo sapiens, UniProt O14649). The assay is described as follows: Inhibition of recombinant TASK-1 in stably transfected CHO cells, KCl-induced depolarization, voltage-sensitive dye (B-2). It counts as cell-based. Particulars: depolarization induced by 40 mM potassium chloride, some mean values from multiple determinations. More on the design: expressed in transfected cells; host or cells: stably transfected CHO cells. As to the method:
(§1) B-2. Inhibition of Recombinant TASK-1 and TASK-3 In Vitro
(§2) The investigations on the inhibition of the recombinant TASK-1 and TASK-3 channels were conducted using stably transfected CHO cells. The compounds of the invention were tested here with administration of 40 mM of potassium chloride in the presence of a voltage-sensitive dye using the method described in detail in the following references [Whiteaker et al., Validation of FLIPR membrane potential dye for high-throughput screening of potassium channel modulators, J. Biomol. Screen. 6 (5), 305-312 (2001); Molecular Devices FLIPR Application Note: Measuring membrane potential using the FLIPR® membrane potential assay kit on Fluorometric Imaging Plate Reader (FLIPR®) systems, http://www.moleculardevices.com/reagents-supplies/assay-kits/ion-channels/flipr-membrane-potential-assay-kits]. The activity of the test substances was determined as their ability to inhibit a depolarization induced in the recombinant cells by 40 mM potassium chloride. The concentration which can block half of this depolarization is referred to as IC50).
(§3) Table 2 below lists the IC50 values from this assay determined for individual working examples of the invention (some as mean values from multiple independent individual determinations): […]

A further assay concerns the target human TASK-3 (Homo sapiens, UniProt Q9NPC2). The assay is described as follows: Inhibition of recombinant TASK-3 in stably transfected CHO cells, KCl-induced depolarization, voltage-sensitive dye (B-2). It counts as cell-based. More on the design: expressed in transfected cells; host or cells: stably transfected CHO cells. Conditions: depolarization induced by 40 mM potassium chloride, some mean values from multiple determinations. As for the experimental part:
as §1, §2, §3

Consider 34 compounds from US20210024545A1, “SUBSTITUTED DIAZAHETERO-BICYCLIC COMPOUNDS AND THEIR USE” (Bayer Aktiengesellschaft, priority 2016, published 2021).

Sequence of human TASK-1 (O14649 whole entry): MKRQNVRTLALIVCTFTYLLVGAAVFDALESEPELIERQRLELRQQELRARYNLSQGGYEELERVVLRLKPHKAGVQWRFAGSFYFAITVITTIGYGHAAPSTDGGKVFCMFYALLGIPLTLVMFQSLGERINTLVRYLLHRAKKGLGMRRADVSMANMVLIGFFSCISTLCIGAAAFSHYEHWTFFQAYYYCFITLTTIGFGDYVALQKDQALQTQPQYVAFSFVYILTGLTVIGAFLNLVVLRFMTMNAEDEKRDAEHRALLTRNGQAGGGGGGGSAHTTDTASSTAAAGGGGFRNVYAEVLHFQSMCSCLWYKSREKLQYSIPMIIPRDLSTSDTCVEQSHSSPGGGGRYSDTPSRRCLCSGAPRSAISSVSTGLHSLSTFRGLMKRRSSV
Sequence of human TASK-3 (Q9NPC2 whole entry): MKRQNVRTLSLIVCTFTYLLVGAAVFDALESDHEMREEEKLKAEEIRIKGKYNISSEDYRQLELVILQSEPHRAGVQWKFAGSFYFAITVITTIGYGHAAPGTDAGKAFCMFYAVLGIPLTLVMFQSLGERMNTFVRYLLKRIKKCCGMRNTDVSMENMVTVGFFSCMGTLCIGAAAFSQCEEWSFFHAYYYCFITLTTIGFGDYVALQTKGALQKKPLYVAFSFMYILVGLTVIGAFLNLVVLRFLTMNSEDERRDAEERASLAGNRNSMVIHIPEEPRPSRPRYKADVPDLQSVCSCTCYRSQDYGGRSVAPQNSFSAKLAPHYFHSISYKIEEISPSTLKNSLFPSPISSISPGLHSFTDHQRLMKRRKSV

As to `CC(C)c1ccc(-c2nc3ccccn3c2CN2C3CCC2CN(C(=O)c2ccccc2F)C3)cc1` [Example 94], the 50% inhibitory concentration (IC50) stood at 530 nM at human TASK-1 and 130 nM on human TASK-3.

As to `CCOC(=O)N1C2COCC1CN(Cc1c(-c3ccc(Cl)cc3)nc3ccccn13)C2` [Example 195, Ethyl 7-{[2-(4-chlorophenyl)imidazo[1,2-a]pyridin-3-yl]methyl}-3-oxa-7,9-diazabicyclo[3.3.1]nonane-9-carboxylate], the 50% inhibitory concentration (IC50) amounted to 230 nM at human TASK-1 and 8.1 nM at human TASK-3.

As to `COc1cccc(C(=O)N2CC3CCC2CN3Cc2c(-c3ccc(Cl)cc3)nc3ccccn23)c1` (single isomer, unassigned) [Example 40], the 50% inhibitory concentration (IC50) at human TASK-1 stood at 533 nM; on human TASK-3, 104 nM.

With `O=C(NC1CCCCC1)N1C2CCC1CN(Cc1c(-c3ccc(Cl)cc3)nc3ccccn13)C2` [Example 164, 3-{[2-(4-Chlorophenyl)imidazo[1,2-a]pyridin-3-yl]methyl}-N-cyclohexyl-3,8-diazabicyclo[3.2.1]octane-8-carboxamide], the IC50 on human TASK-1 was 3100 nM; at human TASK-3, 1000 nM.

Turning to `Cc1ccccc1C(=O)N1CC2CCC(C1)N2Cc1c(-c2ccc(Cl)cc2)nc2ccccn12` [Example 90], the 50% inhibitory concentration (IC50) on human TASK-1 came out at 958 nM; on human TASK-3, 79 nM.

As to `COc1ccc(F)cc1C(=O)N1C2COCC1CN(Cc1c(-c3ccc(Cl)cc3)nc3ccccn13)C2` [Example 75], the IC50 worked out at 380 nM at human TASK-1 and 30 nM at human TASK-3.

For the compound `O=C(N1CCOCC1)N1C2CCC1CN(Cc1c(-c3ccc(Cl)cc3)nc3ccccn13)C2` [Example 173, (3-{[2-(4-Chlorophenyl)imidazo[1,2-a]pyridin-3-yl]methyl}-3,8-diazabicyclo[3.2.1]oct-8-yl)(morpholin-4-yl)methanone], the figures for the half-inhibitory concentration (IC50) at human TASK-1 and on human TASK-3 were 1700 nM and 32 nM, respectively.

As for `Cc1ccc(F)cc1C(=O)N1CC2CCC1CN2Cc1c(-c2ccc(Cl)cc2)nc2ccccn12` (single isomer, unassigned) [Example 47], the IC50 at human TASK-1 turned out to be 70 nM; at human TASK-3 it was 15 nM.

For `CC(C)NC(=O)N1C2COCC1CN(Cc1c(-c3ccc(Cl)cc3)nc3ccccn13)C2` [Example 168, 7-{[2-(4-Chlorophenyl)imidazo[1,2-a]pyridin-3-yl]methyl}-N-isopropyl-3-oxa-7,9-diazabicyclo[3.3.1]nonane-9-carboxamide], the IC50 on human TASK-1 came to 1400 nM; on human TASK-3, 130 nM.

With `O=C(c1ccccn1)N1CC2CCC1CN2Cc1c(-c2ccc(Cl)cc2)nc2ccccn12` (single isomer, unassigned) [Example 51], the half-maximal inhibitory concentration (IC50) at human TASK-1 turned out to be 290 nM; at human TASK-3, 34 nM.

Consider `CC(C)c1ccc(-c2nc3ccccn3c2CN2CC3CC(C2)N3C(=O)C2CCCC2)cc1` [Example 123], for which the half-inhibitory concentration (IC50) at human TASK-1 amounted to 2000 nM; at human TASK-3, 1600 nM.

As for `Cc1nc(C(=O)N2C3CCC2CN(Cc2c(-c4ccc(Cl)cc4)nc4ccccn24)C3)sc1C` [Example 150, (3-{[2-(4-Chlorophenyl)imidazo[1,2-a]pyridin-3-yl]methyl}-3,8-diazabicyclo[3.2.1]oct-8-yl)(4,5-dimethyl-1,3-thiazol-2-yl)methanone], the 50% inhibitory concentration (IC50) on human TASK-1 amounted to 2700 nM; on human TASK-3, 210 nM.

Take `CN(C(=O)N1C2CCC1CN(Cc1c(-c3ccc(Cl)cc3)nc3ccccn13)C2)c1ccccc1` [Example 172, 3-{[2-(4-Chlorophenyl)imidazo[1,2-a]pyridin-3-yl]methyl}-N-methyl-N-phenyl-3,8-diazabicyclo[3.2.1]octane-8-carboxamide]: the 50% inhibitory concentration (IC50) on human TASK-1 was determined as 5200 nM; at human TASK-3, 80 nM.

For `O=C(c1ccccc1F)N1CC2CCC1CN2Cc1c(-c2ccc(Cl)cc2)nc2ccccn12` (single isomer, unassigned) [Example 36], the half-maximal inhibitory concentration (IC50) at human TASK-1 turned out to be 670 nM; on human TASK-3 it was 250 nM.

With `O=C(c1cc(F)ccc1Cl)N1C2CCC1CN(Cc1c(-c3ccc(Cl)cc3)nc3ccccn13)C2` [Example 106], the half-inhibitory concentration (IC50) was 870 nM on human TASK-1 and 110 nM at human TASK-3.

`O=C(c1cccc(Cl)c1)N1C2COCC1CN(Cc1c(-c3ccc(Cl)cc3)nc3ccccn13)C2` [Example 79]: the 50% inhibitory concentration (IC50) came out at 1000 nM on human TASK-1 and 190 nM at human TASK-3.

`CC(C)N(C(=O)N1C2COCC1CN(Cc1c(-c3ccc(Cl)cc3)nc3ccccn13)C2)C(C)C` [Example 190, 7-{[2-(4-Chlorophenyl)imidazo[1,2-a]pyridin-3-yl]methyl}-N,N-diisopropyl-3-oxa-7,9-diazabicyclo[3.3.1]nonane-9-carboxamide]: the concentration for half-maximal inhibition (IC50) at human TASK-1 worked out at 170 nM; on human TASK-3 it was 19 nM.

For the compound `O=C(c1ccccc1F)N1CC2CCC1CN2Cc1c(-c2ccc(Cl)cc2)nc2ccccn12` (single isomer, unassigned) [Example 35], the half-maximal inhibitory concentration (IC50) on human TASK-1 stood at 350 nM; at human TASK-3 it was 200 nM.

Regarding `CC(C)c1csc(C(=O)N2C3CCC2CN(Cc2c(-c4ccc(Cl)cc4)nc4ccccn24)C3)n1` [Example 146, (3-{[2-(4-Chlorophenyl)imidazo[1,2-a]pyridin-3-yl]methyl}-3,8-diazabicyclo[3.2.1]oct-8-yl)(4-isopropyl-1,3-thiazol-2-yl)methanone], the IC50 at human TASK-1 was 920 nM; at human TASK-3 it was 340 nM.

Consider `COc1cccc(C(=O)N2C3COCC2CN(Cc2c(-c4ccc(Cl)cc4)nc4ccccn24)C3)c1` [Example 70], for which the figures for the IC50 on human TASK-1 and on human TASK-3 were 1900 nM and 160 nM, respectively.

For `CC(C)c1ccc(-c2nc3ccccn3c2CN2CC3CCC2CN3C(=O)C2CCCC2)cc1` (single isomer, unassigned) [Example 63], the 50% inhibitory concentration (IC50) was 490 nM on human TASK-1 and 140 nM at human TASK-3.

Regarding `Cc1cccc(C(=O)N2CC3CCC2CN3Cc2c(-c3ccc(Cl)cc3)nc3ccccn23)c1` (single isomer, unassigned) [Example 53], the concentration for half-maximal inhibition (IC50) was determined as 140 nM on human TASK-1 and 34 nM at human TASK-3.

Take `COc1cccc(C(=O)N2C3CCC2CN(Cc2c(-c4ccc(Cl)cc4)nc4ccccn24)C3)c1` [Example 108]: the 50% inhibitory concentration (IC50) on human TASK-1 was 1100 nM; at human TASK-3 it was 95 nM.

With `COc1cccc(C(=O)N2CC3CCC(C2)N3Cc2c(-c3ccc(Br)cc3)nc3ccccn23)n1` [Example 83], the 50% inhibitory concentration (IC50) on human TASK-1 was found to be 134 nM; at human TASK-3, 14 nM.

For the compound `COc1ccc(C)c(C(=O)N2C3CC2CN(Cc2c(-c4ccc(Cl)cc4)nc4ccccn24)C3)n1` [Example 142, (3-{[2-(4-Chlorophenyl)imidazo[1,2-a]pyridin-3-yl]methyl}-3,6-diazabicyclo[3.1.1]hept-6-yl)(6-methoxy-3-methylpyridin-2-yl)methanone], the IC50 at human TASK-1 was 240 nM; at human TASK-3, 98 nM.

For the compound `O=C(C1CCCC1)N1CC2CCC(C1)N2Cc1c(-c2ccc(Br)cc2)nc2ccccn12` [Example 85], the half-maximal inhibitory concentration (IC50) was found to be 520 nM on human TASK-1 and 53 nM at human TASK-3.

On to `O=C(C1CCCCC1)N1C2CC1CN(Cc1c(-c3ccc(Cl)cc3)nc3ccccn13)C2` [Example 118], for which the 50% inhibitory concentration (IC50) was found to be 860 nM at human TASK-1 and 1000 nM on human TASK-3.

Turning to `Cc1ccc(F)cc1C(=O)N1CC2CCC(C1)N2Cc1c(-c2ccc(Cl)cc2)nc2ccccn12` [Example 88], the concentration for half-maximal inhibition (IC50) was 766 nM at human TASK-1 and 210 nM at human TASK-3.

Consider `COC(=O)N1C2CCC1CN(Cc1c(-c3ccc(Cl)cc3)nc3ccccn13)C2` [Example 184, Methyl 3-{[2-(4-chlorophenyl)imidazo[1,2-a]pyridin-3-yl]methyl}-3,8-diazabicyclo[3.2.1]octane-8-carboxylate], for which the IC50 on human TASK-1 was 2900 nM; at human TASK-3 it was 72 nM.

As to `O=C(Nc1c(F)cccc1F)N1C2CCC1CN(Cc1c(-c3ccc(Cl)cc3)nc3ccccn13)C2` [Example 166, 3-{[2-(4-Chlorophenyl)imidazo[1,2-a]pyridin-3-yl]methyl}-N-(2,6-difluorophenyl)-3,8-diazabicyclo[3.2.1]octane-8-carboxamide], the half-inhibitory concentration (IC50) at human TASK-1 was determined as 990 nM; on human TASK-3, 44 nM.

With `CCOC(=O)N1C2CCC1CN(Cc1c(-c3ccc(Cl)cc3)nc3ccccn13)C2` [Example 185, Ethyl 3-{[2-(4-chlorophenyl)imidazo[1,2-a]pyridin-3-yl]methyl}-3,8-diazabicyclo[3.2.1]octane-8-carboxylate], on human TASK-1, the IC50 is 120 nM.

As to `COc1ccc(F)c(C(=O)N2CC3CCC2CN3Cc2c(-c3ccc(C(C)C)nc3)nc3ccccn23)n1` (single isomer, unassigned) [Example 127, (3-Fluoro-6-methoxypyridin-2-yl)(5-{[2-(6-isopropylpyridin-3-yl)imidazo[1,2-a]pyridin-3-yl]methyl}-2,5-diazabicyclo[2.2.2]oct-2-yl)methanone], the IC50 was 9450 nM on human TASK-1 and 670 nM at human TASK-3.

For the compound `Cc1cccc(Cl)c1NC(=O)N1C2CCC1CN(Cc1c(-c3ccc(Cl)cc3)nc3ccccn13)C2` [Example 165, N-(2-Chloro-6-methylphenyl)-3-{[2-(4-chlorophenyl)imidazo[1,2-a]pyridin-3-yl]methyl}-3,8-diazabicyclo[3.2.1]octane-8-carboxamide], the IC50 at human TASK-1 came out at 25 nM.

As to `COc1cccc(C(=O)N2CC3CCC2CN3Cc2c(-c3ccc(C(C)C)cc3)nc3ccccn23)n1` (single isomer, unassigned) [Example 60], at human TASK-3, the IC50 is 610 nM.
